Laboratory results from patent publication US8962020B2, “Long-acting and controlled release formulations of 2-[(3-chlorophenyl) amino] phenylacetic acid” (Glycadia Inc., priority 2012, dated 2015).

Legend:
[1] = Pharmacokinetics following oral administration of 23CPPA in rats for fourteen days; format: in vivo; conditions: for Tmax / half-life: rat, plasma
Procedure: (§1) Rats (Charles River Laboratories) received 23CPPA orally at dosages of 25 and 75 mg per kg per day for fourteen days. Samples were obtained at timed intervals following administration for measurement of plasma concentrations of 23CPPA and pharmacokinetic analysis, and tissue was histopathologically examined at the end termination of the study period.

[2] = Gastric histopathology following oral administration of 23CPPA in rats for fourteen days; format: in vivo
Procedure: as §1

[3] = Plasma 23CPPA after oral graduated doses of nonformulated 23CPPA to normal men; format: in vivo
Procedure: Plasma concentrations of 23CPPA were measured in samples obtained at timed intervals after oral administration of graduated doses of nonformulated 23CPPA to normal men.

[4] = pKa (acid dissociation constant); format: physicochemical; conditions: pharmaceutically acceptable salts of 23CPPA such as potassium; read-out: pKa (logarithm of the acid dissociation constant)

SMILES: O=C(O)Cc1ccccc1Nc1cccc(Cl)c1 [Granule 23CPPA, 2-[(3-chlorophenyl)amino] phenylacetic acid]
- time of maximum plasma concentration of drug after administration ([1]; 25 and 75 mg per kg per day): 0.25 h
- Tmax ([1]; 25 mg/kg/day for fourteen days): 0.25 h
- half-life ([1]; 25 mg/kg/day for fourteen days): 2.3 h
- Tmax ([1]; 75 mg/kg/day for fourteen days): 0.25 h
- half-life ([1]; 75 mg/kg/day for fourteen days): 2.3 h
- Gastric Histopathology: Edema/inflammation ([2]; 25 mg/kg/day for fourteen days): Edema/inflammation (20) % animals
- Gastric Histopathology: Edema/inflammation ([2]; 75 mg/kg/day for fourteen days): Edema/inflammation (30) % animals
- Plasma 23CPPA (peak concentration) ([3]; relative dose 1): 7 nmol/mL
- Plasma 23CPPA (peak concentration) ([3]; relative dose 2): 19 nmol/mL
- Plasma 23CPPA (peak concentration) ([3]; relative dose 5): 44 nmol/mL
- Plasma 23CPPA (peak concentration) ([3]; relative dose 10): 64 nmol/mL
- Plasma 23CPPA (peak concentration) ([3]; relative dose 15): 70 nmol/mL
- Plasma 23CPPA (peak concentration) ([3]; relative dose 20): 74 nmol/mL
- pKa [4]: 4
